Assay [1] relates to Adult neural progenitor cells. Description: Immunohistochemistry with lineage-specific markers (Tuj 1, GFAP, RIP). It counts as cell-based. Here is the method: Adult neural progenitor cells were plated in N2 media containing FGF2 for twenty-four hours. See Bottenstein et al., Growth of a rat neuroblastoma cell line in serum-free supplemented medium, Proc. Natl. Acad. Sci. USA 76(1) (1979) (describing components of N2 media). The cells were replaced with fresh N2 media (without FGF2) and apigenin was added. In all experiments, 5 mM apigenin dissolved in DMSO was used. As a positive control for neuronal differentiation, N2 media containing retinoic acid (RA) and forskolin (FSK) was used. As a negative control, N2 media and the equivalent amount of DMSO or N2 was used. Either a NeuroD luciferase reporter assay (purchased from Promega, cat. No. e-1980, Dual-Luciferase Reporter 1000 Assay System) was performed two days later or immunohistochemistry was performed four days later. The immunohistochemical analysis of the apigenin-treated and control cells was performed by fixing and staining the cells after four days with lineage-specific markers (Tuj 1 for neurons, GFAP for astrocytes, and RIP for oligodendrocytes). Tuj 1 is a neuron-specific class III beta-tubulin used as a marker for new neurons. GFAP (glial fibrillary acidic protein), an intermediate-filament protein which is expressed almost exclusively in the astrocytes of the central nervous system, is used as a marker for new astrocytes. RIP is a monoclonal antibody used as an early marker of developing oligodendrocytes.

Assay [2] has as its system dentate gyrus. The assay can be described thus: BrdU/NeuN/GFAP phenotyping of newly dividing cells (neurogenesis) in the dentate gyrus. It counts as in vivo, mice. Conditions: for number of BrdU+ cells co-labeled with NeuN (new neurons) in the dentate gyrus: 25 mg/kg i.p. 42 days, runners, vs all other groups, p<0.001. From the text:
After the long-term study of Example 1 and all behavioral testing was concluded (Day 42), mice were perfused using 4% paraformaldehyde and their brain tissue was extracted. Brain tissue was sectioned and stained for BrdU/DAB quantification of dividing cells. A second immunofluorescence stain was used for phenotyping of the newly dividing cells. Brain sections were also taken and stained with Brdu/NeuN/GFAP. Phenotype analysis was completed to determine the percentage of dividing cells co-labeled with NeuN, a marker used to identify mature neurons. Using the percentage, it was possible to calculate the total number of BrdU/NeuN co-labeled cells in the dentate gyrus.

The test system of the next assay is NeuroD. Description: NeuroD luciferase reporter assay. It counts as cell-based. The conditions noted are these: 5 mM apigenin; cells first allowed to proliferate with FGF2 for twenty-four hours; 2-day treatment. The method, then:
Adult neural progenitor cells were plated in N2 media containing FGF2 for twenty-four hours. See Bottenstein et al., Growth of a rat neuroblastoma cell line in serum-free supplemented medium, Proc. Natl. Acad. Sci. USA 76(1) (1979) (describing components of N2 media).
The cells were replaced with fresh N2 media (without FGF2) and apigenin was added. In all experiments, 5 mM apigenin dissolved in DMSO was used. As a positive control for neuronal differentiation, N2 media containing retinoic acid (RA) and forskolin (FSK) was used. As a negative control, N2 media and the equivalent amount of DMSO or N2 was used. Either a NeuroD luciferase reporter assay (purchased from Promega, cat. No. e-1980, Dual-Luciferase Reporter 1000 Assay System) was performed two days later or immunohistochemistry was performed four days later. […]
In general terms: In a reporter assay the amount or activity of a reporter protein is the signal.

Assay [3] deals with dentate gyrus. Description: BrdU/DAB quantification of dividing cells in the dentate gyrus after long-term study. It counts as in vivo, mice. Conditions: for number of dividing cells (BrdU+) in the dentate gyrus: 25 mg/kg i.p. 42 days; for number of dividing cells (BrdU+) in the dentate gyrus, overall statement: running and non-running groups. Here is the method: Injections were administered intraperitoneally (i.p.) for forty-two days total. In addition to test injections, daily i.p. injections of 5-bromo-2-deoxyuridine (BrdU) [10 mg/ml] were administered for the first eight days at a dose of 50 mg/kg. Within each test group, eight mice were randomly selected to receive running exercise. These thirty-two mice (eight mice per injection group) were transferred daily (on Days 1-40 of the study) from their normal static housing to an automated voluntary running wheel cage for two hours a day. Non-running mice remained in their static cages throughout the study. After the long-term study of Example 1 and all behavioral testing was concluded (Day 42), mice were perfused using 4% paraformaldehyde and their brain tissue was extracted. Brain tissue was sectioned and stained for BrdU/DAB quantification of dividing cells. A second immunofluorescence stain was used for phenotyping of the newly dividing cells. Brain sections were also taken and stained with Brdu/NeuN/GFAP. Phenotype analysis was completed to determine the percentage of dividing cells co-labeled with NeuN, a marker used to identify mature neurons. Using the percentage, it was possible to calculate the total number of BrdU/NeuN co-labeled cells in the dentate gyrus.

Setting [4] is: 5 mM apigenin, cells first proliferating in FGF2, four days.

SMILES strings stand for the structures. Entries after “also recorded” stand apart in the source; their conditions may differ.

Regarding `O=c1cc(-c2ccc(O)cc2)oc2cc(O)cc(O)c12` [apigenin], the “astrocyte (GFAP) differentiation” value in assay [1] (setting [4]) was 1-5%. For the same molecule, the “oligodendrocyte (RIP) differentiation” value in assay [1] (setting [4]) is 1-5%. Besides, the “percentage of Tuj 1-positive neurons” value in assay [1] (5 mM apigenin, directly plated into N2 media without FGF2, four days) lay in the range of 5 to 30%. The “difference in Tuj 1 or Map2ab-positive neurons with or without FGF-2 pre-treatment” value in assay [1] (repeated experiments) was “no significant difference”. Besides, the “number of BrdU+ cells co-labeled with NeuN (new neurons) in the dentate gyrus” value in the assay on dentate gyrus [2] is “significantly higher number of new neurons than all other mice in the study”; in the assay on dentate gyrus [2] (listed as Apigenin) it was “significantly more new neurons than all other groups; also recorded: greatest increase in neurogenesis”. In addition, in the assay on dentate gyrus [2] (overall statement), the “differentiation of the dividing cells into neurons” value was “increases”. The “NeuroD-activation (luciferase) as compared to activation by RA+FSK” value in the assay with NeuroD is given as “two-fold higher”. Also, the “number of dividing cells (BrdU+) in the dentate gyrus” value is recorded as “significant increase in the number of dividing cells” in the assay on dentate gyrus [3] (non-runners, vs control non-runners and apigenin 12.5 mg/kg non-runners, p<0.01); “significantly more dividing cells” in the assay on dentate gyrus [3] (runners, vs running control, p<0.05). The “number of dividing cells (BrdU+) in the dentate gyrus, overall statement” value is “increases” with dentate gyrus [3]; “increased BrdU labeling in both running and non-running groups” with dentate gyrus [3] (listed as Apigenin).

The record behind these values is patent US20080227829A1, “Neurogenic compounds” (priority 2007, published 2008).
